Assay results taken from article PMC11477298, “Small Molecules Inducing Autophagic Degradation of Expanded Polyglutamine Protein through Interaction with Both Mutant ATXN3 and LC3” (International Journal of Molecular Sciences, 2024).

What was measured:
[1] = MTT compound cytotoxicity assay; type: cell-based, human; details: human, ATXN3-Q75-GFP SH-SY5Y cells, 0.1–100 μM compound, viability analyzed the next day, n = 3
Method: For the compound cytotoxicity assay, ATXN3-Q75-GFP SY5Y cells (2 × 10^4) were plated into 96-well dishes, grown for 20 h, and treated with 0.1–100 μM test compounds. After 1 day, 3-(4,5-dimethylthiazol-2-yl)-2,5-diphenyltetrazolium bromide (MTT, 5 mg/mL) (Sigma-Aldrich, St. Louis, MO, USA) was added to the cells and incubated for 3 h at 37 °C. Lysis buffer (10% Triton X-100, 0.1 N HCl, 18% isopropanol) was then added to dissolve the insoluble formazan crystals. The absorbance of the purple-colored solution was measured at optical density (OD) 570 nm by using a FLx800 fluorescence microplate spectrophotometer (Bio-Tek, Winooski, VT, USA). The half-maximal inhibitory concentration (IC50) was calculated through the construction of a dose–response curve.

[2] = test system: ATXN3-Q75-GFP SH-SY5Y cells; assay: Western blot of LC3-II:LC3-I ratio; type: cell-based, human; details: compound 10 μM; uninduced = 100%, untreated induced 76%; range over trehalose and the four compounds
Method: For the immunoblotting analysis, ATXN3-Q75-GFP SH-SY5Y cells were seeded in 6-well plates (3 × 10^5/well) and treated with retinoic acid, test compounds, and doxycycline, as described. On day 8, cells were collected and lysed in buffer (50 mM Tris-HCl pH 8.0, 150 mM NaCl, 2 mM EDTA pH 8.0, 0.1% SDS, 0.5% sodium deoxycholate, 1% NP-40) containing the protease inhibitor cocktail (Sigma-Aldrich). After sonication, the lysates were centrifuged (12,000× g for 10 min at 4 °C) and protein concentrations determined (Bradford protein assay; Bio-Rad, Hercules, CA, USA). Aliquots of protein (20 µg) were separated by electrophoresis using 12% SDS-polyacrylamide gel followed by transfer to a polyvinylidene fluoride membrane. After being blocked with 5% skim milk at 4 °C overnight, the membrane was stained with LC3 (1:1000; Medical & Biological Laboratories Co. #PM036, Tokyo, Japan) or GAPDH (glyceraldehyde 3-phosphate dehydrogenase) (1:1000, MDBio #30000002, Taipei, Taiwan) primary antibody at 4 °C overnight. The immune complexes were detected using HRP-conjugated goat anti-rabbit IgG antibody and chemiluminescent substrate, as described.

ATXN3-Q75-VC and VN-LC3 = assay: Co-immunoprecipitation of VN-LC3 with ATXN3-Q75-VC in mixed 293T cell lysates; type: binding; details: compound 100 µM; compared to without compound treatment
Source text: EcoRI-NcoI ATXN3 C-terminal Q14 and Q75-containing fragment (amino acids 251–361 in full-length ATXN3-Q14 [NM_004993]; [20]) and NcoI-NotI Venus C-terminal fragment (VC212-239) were subcloned into EcoRI- and NotI-digested pcDNA3 vector (Invitrogen) to generate pcDNA3-ATXN3-Q14−75-VC plasmid for producing ATXN3-Q14−75-VC fusion protein linked by a 6-amino acid polypeptide linker (containing NcoI restriction site). In addition, BamHI-XbaI Venus-N-terminal fragment (VN1-211) and XbaI-BamHI LC3 cDNA fragment (MAP1LC3B, NM_022818) were subcloned into BamHI-digested pcDNA5/FRT/TO vector (Invitrogen) to generate pcDNA5-VN-LC3 plasmid for producing VN-LC3 fusion protein linked by a 2-amino acid dipeptide linker (containing XbaI restriction site). The recombinant pcDNA3-ATXN3-Q14-VC, pcDNA3-ATXN3-Q75-VC, or pcDNA5-VN-LC3 plasmid (2 μg) was transiently transfected into 293T cells (2 × 10^5/6-well) using T-Pro non-liposome transfection reagent II (T-Pro Biotechnology #JT97-N002M, New Taipei City, Taiwan) according to the supplier’s instruction. After 48 h, cell lysate containing ATXN3-Q14-VC, ATXN3-Q75-VC, or VN-LC3 fusion protein was prepared using cytoskeleton (CSK) buffer containing 10 mM PIPES, 100 mM NaCl, 300 mM sucrose, 1 mM EGTA, 1 mM MgCl2, and 1 mM DTT and quantified, as described.
In this case, 293T cell lysates with transiently expressed ATXN3-Q14-VC, ATXN3-Q75-VC, or VN-LC3, and mixture of ATXN3-Q75-VC and VN-LC3 (100 μg of each) in 400 μL CSK buffer were incubated at 4 °C under gentle rotation. To test the concept of the ATTEC, 100 μM of the compound (NC009-1, -2, and -6 or LM-031) was added to the lysates containing ATXN3-Q75-VC and VN-LC3 proteins. After overnight incubation, ATXN3-Q14−75-VC protein was immunoprecipitated with rabbit ataxin-3 (1:1000; Invitrogen #PA5-26251) or mouse 5TF1-1C2 antibody (1:500; Merck #MAB1574, Darmstadt, Germany) at 4 °C overnight. […] The immune complexes were detected using HRP-conjugated goat anti-rabbit (#GTX213110-01) or goat anti-mouse (#GTX213111-01) IgG antibody (1:5000; GeneTex) and chemiluminescent substrate, as described.

Structure (SMILES)	IC50 at 1 day [1]	Relative LC3-II:LC3-I ratio [2]	Amount of VN-LC3 co-immunoprecipitated by 5TF1-1C2 antibody (ATXN3-Q75-VC and VN-LC3)
O=C(c1ccccc1)c1cc2c(O)cccc2oc1=O [LM-031]	> 100 µM	102–124%	notably increased
CC(=O)/C(=C\c1ccccc1[N+](=O)[O-])Cc1c[nH]c2ccccc12 [NC009-1]	111 µM	102–124%	notably increased
CC(=O)/C(=C\c1ccccc1[N+](=O)[O-])Cc1c(C)[nH]c2ccccc12 [NC009-2]	124 µM	102–124%	notably increased
